Reference: publication PMC5501099 (Malaria Journal, 2017)

Legend:
[1] = system: An. gambiae; design: method as in PMID 20540931; conditions: cited from earlier work
[2] = system: Plasmodium vivax; assay: Effect of ivermectin on Plasmodium vivax sporogony in Anopheles dirus; type: in vivo; conditions: An. dirus; for P. vivax oocyst prevalence reduced by: dissected day 7
Description: Mosquitoes reared in Bangkok were transported to a field laboratory at the Mae Sot Malaria Medical Clinic in Mae Sot, Tak Province. Plasmodium vivax-infected blood was collected from malaria-infected patients reporting to malaria clinics operated by the Thailand Ministry of Public Health in Tak Province (protocol WRAIR#1949A). Patient plasma was removed and replaced by centrifuging blood samples at 3000 rpm for 5 min, plasma removed and blood washed with RPMI twice, and malaria-naïve AB+ serum was added at a 50:50 ratio [30]. One millilitre of blood was fed to each group of 100 mosquitoes in 0.5-l cardboard containers and unfed mosquitoes were removed. Mosquitoes were maintained on 10% sucrose ad libitum at the Mae Sot field insectary (25 ± 1 °C and 70 ± 10% relative humidity, light 12 h:12 h dark photoperiod). Once infected with P. vivax, blood-fed mosquitoes were securely transported back to Bangkok and maintained in a separate insectary (25 ± 1 °C and 70 ± 10% relative humidity, light 12 h:12 h dark photoperiod).
Unfed mosquitoes were removed from the feeding containers after each blood meal. Mosquitoes from the DPI 0 and DPI −3 feeding schedules were dissected 7 days post parasite ingestion to enumerate oocysts. Midguts were dissected with minuten pins into saline on a microscope slide and stained with 0.4% mercurochrome and viewed at 40× magnification with a compound microscope to determine oocyst prevalence and intensity. Approximately 25 mosquitoes were dissected from each control and treatment group at each dissection time point. Dissectors were blinded to treatment groups. Due to lack of initial mosquito blood feeding and mosquitoes lost to experimental mortality and oocyst dissections at day 7 post parasite feeding, not enough mosquitoes remained at day 14 post parasite feeding to determine sporozoite prevalence for the DPI −3 and 0 experiments. Mosquitoes from the DPI 6 and 9 experiments were dissected 14 days post parasite ingestion to determine sporozoite prevalence. Salivary glands were dissected with minuten pins into saline on a microscope slide and viewed at 40× magnification to determine sporozoite prevalence.
(§1) A non-linear mixed effects model with probit analysis was used to calculate LC50, LC25 and LC5 values with Statistical Analysis Software (SAS Institute Inc, Cary, NC, USA) as described previously. Hazard ratios for mosquito mortality at day 7 post blood meal were calculated using Poisson regression analysis with STATA version 12.1 (StataCorp LLC, College Station, TX, USA). Oocyst and sporozoite prevalence (i.e. proportion of infected mosquitoes) was compared by Fishers Exact test. Oocyst intensity (i.e. number of oocysts per infected mosquito) was compared by the Mann–Whitney U test. To determine if P. vivax infection altered mosquito survivorship post-ivermectin ingestion survival data were analysed by the Mantel–Cox method. The Fishers Exact, Mann–Whitney U, and survival analysis data were analysed with Prism 7 (GraphPad Software Inc, San Diego, CA, USA).

[3] = system: Anopheles dirus; assay: Effect of Plasmodium vivax infection on Anopheles dirus survivorship response to ivermectin; type: in vivo; conditions: ivermectin LC25 co-ingested with parasites on DPI 0 vs ivermectin LC25 only; 14 days
Source text: Anopheles dirus were fed a P. vivax blood meal or a non-infectious blood meal prepared from uninfected donor blood and serum was replaced as described above. […] After blood feeding, 50 blood fed females from each treatment group were transferred to a new 0.5-l cardboard carton. Mosquito survivorship was monitored daily and dead mosquitoes were removed from the containers until day 14 post blood meal. Any live mosquitoes at day 14 were frozen and counted as alive. A separate group of mosquitoes were fed a P. vivax control blood meal to ensure that the P. vivax sample was infectious to mosquitoes and only isolates that successfully infected at least 80% of An. dirus were included in the results.
as §1, with “Oocyst and sporozoite prevalence (i.e. proportion of infected mosquitoes) was compared by Fishers Exact test. Oocyst intensity (i.e. number of oocysts per infected mosquito) was compared by the Mann–Whitney U test.” left out

[4] = system: An. dirus; assay: Anticoagulant effects on mosquito survival with ivermectin LC25; type: in vivo, Anopheles dirus; conditions: sodium heparin vs CPDA, 7 days
Description: Blood was drawn from a single donor and put directly into 10 ml sodium heparin tubes (NH) (158 USP units, BD Vacutainer, Franklin Lakes, NJ, USA) or 6ml CPDA Vacuette tubes (Greiner Bio-One, Kremsmϋnster, Austria) under protocol (Protocol WRAIR#2079).

[5] = system: An. gambiae; conditions: ivermectin MDAs in Senegal at 150 µg/kg, for up to 6 days post MDA; cited from earlier work
[6] = design: method as in earlier work; conditions: humans, n = 4; cited from earlier work
[7] = single dose of 800 µg/kg, literature parameters of American healthy volunteers; cited from earlier work
[8] = Population pharmacokinetic model of ivermectin in healthy Thai volunteers; type: in vivo, human; conditions: single oral 200 µg/kg
Description: The first-order conditional estimation method with interaction was used throughout model development. Model diagnostics and automation were performed using Xpose version 4.0 [25], Pirana and Pearl-speaks-NONMEM (PsN; version 3.6.0). The objective function value (OFV; calculated by NONMEM as proportional to −2 × loglikelihood of data) was used to discriminate between hierarchical models. A difference between two models (ΔOFV) of >3.84 and >10.83 were considered statistically significant at a P value of <0.05 and <0.001, respectively. Models were assessed using standard goodness-of-fit and simulation-based diagnostics (i.e. numerical and visual predictive checks using 2000 simulations). The robustness of the final model was evaluated by bootstrapping (n = 1000).
Different disposition models (one-, two- and three-compartment models) and absorption models (first-order and transit models) were evaluated to describe the pharmacokinetic structural model of ivermectin. Pharmacokinetic parameters were assumed to be log-normally distributed and inter-individual variability was implemented as exponential functions. […] The influence of other individual covariates including gender, age, haemoglobin, haematocrit, total bilirubin, direct bilirubin, alkaline phosphatase, aspartate aminotransferase, and alanine aminotransferase, serum creatinine, blood urea nitrogen, and albumin level were investigated using a stepwise covariate approach (P value <0.05 and <0.001 for forward and backward addition and deletion, respectively).
There were no observations reported to be below the lower limit of quantification. […] A flexible transit absorption model (n = 2) improved the model fit substantially compared to the first-order absorption (∆OFV = −378). […] Implementing body weight as a covariate in the model also allowed for translation and interpretation to other study populations.

[9] = ivermectin LC5 at DPI −3, not significant
[10] = 23 healthy Thai volunteers, plasma data of trial [24]
[11] = post hoc estimate, median (interquartile range)

For ivermectin, the “An. gambiae 5-day-LC50” value [1] is listed as 0.0224 µg/mL, the “P. vivax oocyst prevalence reduced by” value ([2]; ivermectin LC5 (22.1 ng/ml) co-ingested at DPI 0) is listed as 33.6% and the “P. vivax mean oocyst intensity reduced by” value ([2]; ivermectin LC5 at DPI 0) is listed as 24.7%. For the same substance, the “P. vivax oocyst intensity increased by” value [2, 9] was 24.2%, the “P. vivax oocyst prevalence decreased by” value [2, 9] was 3.9% and the “P. vivax oocyst prevalence reduced by” value ([2]; ivermectin LC25 (38.1 ng/ml) co-ingested at DPI 0) was 44.7%. The “P. vivax mean oocyst intensity reduced by” value ([2]; ivermectin LC25 at DPI 0) was 51.2%, the “P. vivax sporozoite prevalence decreased by” value ([2]; ivermectin LC25 at DPI 6, dissected day 14, not significant) was 4.5% and the “P. vivax sporozoite prevalence increased by” value ([2]; ivermectin LC25 at DPI 9, dissected day 14, not significant) was 4.4%. The “Effect of P. vivax infection on survivorship of An. dirus that ingested ivermectin” value [3] was “did not alter survivorship”, the “Effect of anticoagulant type on survivorship of An. dirus that ingested ivermectin” value [4] was “did not alter survivorship” and the “An. gambiae 5-day survivorship reduced by” value [5] was 43.6%. For the same substance, the Parent compound half-life [6] was 11.8 h, the “Simulated average peak concentration” value [7] was 108.1 ng/mL and the “MTT mean transit absorption time, population estimate (%RSE)” value [8, 10] was 0.496 (17.1) h. For the same substance, the “ka absorption rate constant, population estimate (%RSE)” value [8, 10] was 0.317 (3.97) h^−1, the “IIV of CL/F (%RSE)” value ([8]; healthy Thai volunteers) was 23.1 (25.2) %CV and the “IIV of F relative bioavailability (%RSE)” value ([8]; healthy Thai volunteers) was 10.7 (42.9) %CV. The “IIV of MTT (%RSE)” value ([8]; healthy Thai volunteers) was 56.1 (36.2) %CV, the “IIV of VP/F (%RSE)” value ([8]; healthy Thai volunteers) was 22.8 (36.0) %CV and the “CL/F apparent oral elimination clearance, population estimate (%RSE)” value ([8]; healthy Thai volunteers, allometric scaling centred on 55 kg) was 9.02 (5.49) l/h. The “Q/F apparent inter-compartmental clearance, population estimate (%RSE)” value ([8]; healthy Thai volunteers, centred on 55 kg) was 16.2 (5.34) l/h, the “AUC0–168” value [8, 11] was 1331 (919–1406) ng × h/ml and the Cmax [8, 11] was 45.7 (40.3–46.9) ng/ml. The Terminal half-life [8, 11] was 25.0 (23.7–29.5) h and the Tmax [8, 11] was 4.76 (4.67–5.04) h.
